We go through 22 compounds from patent US7402600B2, “Nitroderivatives of cardiovascular agents” (NicOx S.A., priority 1999, dated 2008).

Entries after “also recorded” stand apart in the source; their conditions may differ. Read-outs that look alike come from different tables or passages of the source.

The subject of data set [1] is Human endothelial cells of the umbilical vein. In words: Test 2 (CIP): apoptosis (DNA fragmentation) induced by cumene hydroperoxide in endothelial cells. The format is cell-based. The following applies: for inhibition of apoptosis induced by CIP (in words, t Student p<0.01): CIP 5 mM; for activity at 100 µM: Homo sapiens, Endothelial cell, 1 h, read-out: Apoptosis % with respect to the controls treated only with CIP.
Experimental: Test 2 (CIP): Protection parameter of endothelial cell against the oxidative stress induced by cumene hydroperoxide (CIP).
Human endothelial cells of the umbilical vein are prepared according to an usual standard procedure. Fresh umbilical veins are filled with a 0.1% by weight collagenase solution and incubated at 37° C. for 5 minutes.
The cells are collected from the perfusate by centrifugation and harvested in culture flasks T-75, pretreated with human fibronectin. The cells are then harvested in the same medium, further added with 10 ng/ml of bovine hypothalamic growth factor. When the cells of the primary cell culture (i.e. that directly obtained from ex-vivo) form a single layer of confluent cells (about 8,000,000 cells/flask), the culture is stopped and the layers washed and trypsinized. The cellular suspensions are transferred into the wells of a cell culture plate having 24 wells, half of which is then additioned with the same culture medium containing the drug at a 10^−4M concentration, and harvested in a thermostat at 37° C. at a constant moisture. Only the cells coming from said first sub-cultures are used for the experiments with cumene hydroperoxide (CIP).
Before starting the test, the cellular culture medium is removed and the cellular layers are carefully washed with a physiologic solution at a temperature of 37° C. The wells of the culture plate are then incubated for one hour with CIP at a 5 mM concentration in the culture medium. […] 5 replicates for each sample are carried out.
Human endothelial cells of the umbilical vein are prepared according to a standard method. Fresh umbilical veins are filled with a collagenase solution 0.1% by weight and incubated at 37° C. for 5 minutes.
The cells are collected from the perfusate by centrifugation at 800 rpm and harvested in culture flasks T-75, pretreated with human fibronectin. Cells are then harvested in the same medium, added with bovine hypothalamic growth factor (100 ng/ml). When the cells of the primary cell culture (the cells directly removed from ex-vivo umbilical vein) form a single layer of confluent cells (about 8,000,000 cells/flask), harvesting is stopped and the layers are washed and trypsinized. The cellular suspensions are transferred into wells of a culture plate having 24 wells, half of said wells being added with the same culture medium containing the drug at a 10^−4M concentration, and harvested in a thermostat at 37° C. at a constant moisture (90%), CO2=5%. When the drug is not soluble in the culture medium, it is formerly dissolved in a small amount of dimethylsulphoxide. The maximum amount of dimethylsulphoxide which can be added to the culture medium is 0.5%. Only the cells coming from these first subcultures are used for the tests with cumene hydroperoxide (CIP). The cells are identified as endothelial cells by morphological examination and by the specific immunological reaction towards factor VIII; these cultures did never show contaminations from myocytes or fibroblasts.
Before starting the test, the cellular culture medium is removed and the cellular layers are carefully washed with a standard physiologic solution buffered with phosphate 0.1 M pH 7.0, at the temperature of 37° C. The content of each well is then incubated for one hour with a CIP suspension in the culture medium at a 5 mM concentration. Evaluation of the cellular damage (apoptosis) is carried out by determining the percent variation of the DNA fragmentation in the cultures containing the drug+CIP with respect to the controls treated with CIP only. […] The fluorescence of each sample was determined on 5 replicates. Statistic evaluation has been made with t Student test (p<0.01).

The subject of the next data set is gastric mucosa. In words: Example F6: gastric tolerability of invention compounds versus precursor drugs, with or without L-NAME. The format is in vivo, rats. The source says:
Gastric Tolerability Test of the Compounds According to the Invention in the Confront of the Corresponding Precursor Drugs in Conditions of Endothelial Dysfunctions Induced by L-NAME (N^w-nitro-L-arginine-methyl ester).

A short description of data set [2]: Test 4: inhibition of radical production from DPPH. The following applies: tested substance 100 μM in methanol, 30 minutes, absorbance 517 nm. On the procedure:
Test 4 is a colorimetric test which must not be satisfied by the precursor of B or B1 (precursor of the X2 or X2a of the formulas (I) and (II) respectively). The inhibition of the production of radicals from DPPH (2,2-diphenyl-1-picryl-hydrazyl) is described in M. S. Nenseter et Al., Atheroscler. Thromb. 15, 1338-1344, 1995. 100 μM solutions in methanol of the tested substances are prepared, and an aliquot of each of said solutions is added to a DPPH solution in methanol 0.1 M. After having stored the solutions at room temperature away from light for 30 minutes, their absorbances are read at the wave length of 517 nm, together with that of the corresponding DPPH solution at the same concentration. The absorbance decrease with respect to that of the solution of DPPH at the same concentration of the test solutions is determined. The effectiveness of the tested compound in inhibiting formation of radicals by DPPH is expressed by the following formula: (1−AS/AC)×100 wherein AS and AC are respectively the absorbance values of the solution containing the test compound together with DPPH and of the solution containing only DPPH. Test 4 is satisfied when the inhibition is equal or greater than 50%.
Test 4: Inhibition of the Radical Production from DPPH of Some Substances Used as Precursors of B or B1 (Ref. Formulas I and II of the Invention)
The method is based on a calorimetric test in which DPPH (2,2-diphenyl-1-picryl-hydrazyl) is used as the compound-forming radicals (M. S. Nenseter et Al., Atheroscler. Thromb. 15, 1338-1344, 1995).
Solutions in methanol of the tested substances at a final concentration 100 μM are initially prepared. 0.1 ml of each of these solutions are added to aliquots of 1 ml of a methanol solution 0.1 M of DPPH and then the final volume is brought to 1.5 ml. After having stored the solutions at room temperature away from light for 30 minutes, the absorbance at the wave length of 517 nm is read. It is determined the absorbance decrease with respect to the absorbance of a solution containing the same concentration of DPPH.
The efficacy of the test compound to inhibit the production of radicals, or antiradical activity, is expressed by the following formula: (1−AS/AC)×100 wherein AS and AC are, respectively, the absorbance values of the solution containing the test compound together+DPPH and of the solution containing only DPPH.

A further data set relates to gastrointestinal mucosa. In words: Test 1 (NEM): gastric tolerability of precursor drugs in rats treated or not with N-ethylmaleimide. The following applies: rat, in vivo, 24 h. The method, then: The animals (rats) are distributed in the following groups (no. 10 animals for group):
• 1° group: treatment: only carrier (aqueous suspension 1% w/v of carboxymethylcellulose, dose: 5 ml/Kg when the drug is administered by os, or a physiologic solution when parenterally administered, i.e. by subcutaneous, intraperitoneal, intravenous or intramuscular route), • 2° group: treatment: carrier as above defined+NEM, B) Groups Treated with the Drug: • group I: treatment: carrier+drug, • group II: treatment: carrier+drug+NEM.
The administration routes are those known for the drug, and can be the oral or subcutaneous, intraperitoneal, intravenous or intramuscular route.
The animals are sacrificed after 24 hours and then one proceeds to the evaluation of the damage to the gastrointestinal mucosa.
Test 1—Experimental Model in Vivo with N-ethylmaleimide (NEM): Study of the Gastric Tolerability of Some Drugs Screened as Precursors of the Compounds of the Invention.
The animals (rats, weight about 200 g) are distributed in the following groups (No. 10 animals for group):
• 1° group: treatment: only carrier (aqueous suspension 1% w/v of carboxymethylcellulose, dose: 5 ml/Kg when the drug is administered by os, physiologic solution when by parenteral route), • 2° group: treatment: carrier+NEM B) Groups Administered with Each Drug: • group I: treatment: carrier+drug, • group II: treatment: carrier+drug+NEM.
The drug is administered one hour later, in suspension in the carrier. Animals are sacrificed after 24 hours and evaluation of the damage to the gastrointestinal mucosa is made by counting the number of rats, inside each group, with lesions to the stomach at a visual inspection. The total number of said rats is then divided by the total number of rats of the group and multiplied by 100.

Setting [3] is: drug 10^-4 M, CIP 5 mM for one hour, DNA fragmentation.
The mark [4] stands for this setting: rats, dose and route as in the column beside (higher doses than in L-NAME animals).

For `NC(=O)c1cccnc1` [Nicotinamide], in data set [1] (drug 10^-4 M), the “inhibition of apoptosis induced by CIP (in words, t Student p<0.01)” value (from here on “inhibition … (in words, t Student p<0.01)”) is “do not significantly inhibit apoptosis”.
`CCC(C)(C)C(=O)O[C@H]1C[C@@H](C)C=C2C=C[C@H](C)[C@H](CC[C@@H]3C[C@@H](O)CC(=O)O3)[C@H]21` [Simvastatine]: in data set [1], the activity at 100 µM was 72%.
`CC(=O)Nc1ccc(O)cc1` [Paracetamol]: the “inhibition … (in words, t Student p<0.01)” value in data set [1] (drug 10^-4 M) is “do not significantly inhibit apoptosis; also recorded: not significantly different with respect to that of the controls”.
For the compound `Cn1c(=O)c2c(ncn2CC(O)CO)n(C)c1=O` (stereo not shown) [Diphylline], the “inhibition … (in words, t Student p<0.01)” value in data set [1] (drug 10^-4 M) is “do not significantly inhibit apoptosis”. Further, the “Apoptosis % with respect to the controls treated only with CIP” value in data set [1] (setting [3]) worked out at 95%.
For `Nc1nc2c(ncn2COCCO)c(=O)[nH]1` [Aciclovir], the activity at 100 µM in data set [1] (setting [3]) came out at 95%. Also, the “inhibition … (in words, t Student p<0.01)” value in data set [1] (drug 10^-4 M) is reported as “do not significantly inhibit apoptosis”.
In the case of `O=C(O)Cc1ccccc1Nc1c(Cl)cccc1Cl` [Diclofenac], in the data set on gastric mucosa (rat, in vivo, 4 weeks), the “% gastropathy, animals not treated with L-NAME” value was 70% and the “% gastropathy, animals treated with L-NAME” value stood at 100%.
On to `CC(=O)N[C@@H](CS)C(=O)O` [N-acetylcisteine], for which the “% inhibition radical production from DPPH” value in data set [2] (listed as N-acetylcysteine) amounted to 100%.
In the case of `CCOC(=O)[C@H](CCc1ccccc1)N[C@@H](C)C(=O)N1CCC[C@H]1C(=O)O` [Enalapril], the activity at 100 µM in data set [1] (setting [3]) worked out at 80%. The “inhibition … (in words, t Student p<0.01)” value in data set [1] (drug 10^-4 M) is given as “do not significantly inhibit apoptosis”.
Regarding `NCCCC(O)(P(=O)(O)O)P(=O)(O)O` [Alendronate], the “Gastro-enteropathy (% incidence) without NEM” value in the data set with gastrointestinal mucosa is recorded as 0%. Moreover, the “inhibition … (in words, t Student p<0.01)” value in data set [1] (drug 10^-4 M) is given as “do not significantly inhibit apoptosis”. In addition, in the data set with gastric mucosa (rat, in vivo, 4 weeks), the “% gastropathy, animals not treated with L-NAME” value amounted to 90% and the “% gastropathy, animals treated with L-NAME” value was found to be 70%.
`O=C(O)c1cc(O)ccc1O` [Gentisic acid]: the “% inhibition radical production from DPPH” value in data set [2] was found to be 80%.
In the case of `Nc1ccc(O)c(C(=O)O)c1` [Mesalamine], the “Gastro-enteropathy (% incidence) without NEM” value with gastrointestinal mucosa is reported as 0%. Besides, the “inhibition … (in words, t Student p<0.01)” value in data set [1] (drug 10^-4 M) is recorded as “inhibit apoptosis; also recorded: inhibits the apoptosis induced by CIP”.
Consider `O=C(CCC(=O)OCCCCO[N+](=O)[O-])NCCCC(O)(P(=O)(O)O)P(=O)(O)O` [Example 6, [4-amino-[4-oxo-(4-nitroxybutyloxy)butanoyl]-1-hyroxybutyliden] biphosphonic acid], for which the “% gastropathy, animals treated with L-NAME” value with gastric mucosa (rats, L-NAME) worked out at 10%. For the same compound, the “% gastropathy, animals not treated with L-NAME” value in the data set on gastric mucosa (setting [4]) was 20%.
The corresponding values for `O=C(CCC(=O)OCCCCO[N+](=O)[O-])Nc1c2c(nc3ccccc13)CCCC2` [Example 5] are 0% and 20%.
As to `CC1(C)S[C@@H]2[C@H](NC(=O)[C@H](N)c3ccccc3)C(=O)N2[C@H]1C(=O)O` [Ampicilline], in data set [1] (setting [3]), the activity at 100 µM was 94%. Moreover, the “inhibition … (in words, t Student p<0.01)” value in data set [1] (drug 10^-4 M) is on record as “do not significantly inhibit apoptosis”.
`COc1cc(/C=C/C(=O)O)ccc1O` [Ferulic acid]: in data set [2], the “% inhibition radical production from DPPH” value is 100%.
As for `COC(=O)[C@H](c1ccccc1Cl)N1CCc2sccc2C1` [Clopidogrel], the activity at 100 µM in data set [1] (setting [3]) came to 110%. For the same compound, in data set [1] (drug 10^-4 M), the “inhibition … (in words, t Student p<0.01)” value is given as “do not significantly inhibit apoptosis”.
`N[C@@H](CS)C(=O)O` [Cisteine]: the “% inhibition radical production from DPPH” value in data set [2] is listed as 100%.
Take `O=C(Cc1ccccc1Nc1c(Cl)cccc1Cl)NC(Cc1c[nH]cn1)C(=O)OCCCCO[N+](=O)[O-]` (stereo not shown) [Example 4, [2-[(2,6-dichlorophenyl)amino]-benzeneacetyloxy]-(L)-histidine 4-(nitroxy)butyl ester]: the “% gastropathy, animals treated with L-NAME” value in the data set on gastric mucosa (rats, L-NAME) turned out to be 0%. Also, in the data set with gastric mucosa (setting [4]), the “% gastropathy, animals not treated with L-NAME” value amounted to 0%.
`Nc1c(Br)cc(Br)cc1CNC1CCC(OC(=O)CCC(=O)OCCCCO[N+](=O)[O-])CC1` (stereo not shown) [Example 7, [4-oxo-(4-nitroxybutyloxy)butanoyl4-(2-amino-3,5-dibromophenyl)-methylamino] cyclohexanol ester]: in the data set on gastric mucosa (rats, L-NAME), the “% gastropathy, animals treated with L-NAME” value was 0%. The “% gastropathy, animals not treated with L-NAME” value with gastric mucosa (setting [4]) is given as 10%.
`O=C(O)COCCN1CCN(C(c2ccccc2)c2ccc(Cl)cc2)CC1` (stereo not shown) [Cetirizine]: the activity at 100 µM in data set [1] (setting [3]) amounted to 115%. For the same compound, the “inhibition … (in words, t Student p<0.01)” value in data set [1] (drug 10^-4 M) is reported as “do not significantly inhibit apoptosis”.
Consider `CC(C)(C)NCC(O)c1ccc(O)c(CO)c1` (stereo not shown) [Salbutamol], for which the “inhibition … (in words, t Student p<0.01)” value in data set [1] (drug 10^-4 M) is reported as “do not significantly inhibit apoptosis”.
As to `O=C1NC(C(=O)O)CS1` (stereo not shown) [2-oxo-4-thiazolidin carboxylic acid], the “% inhibition radical production from DPPH” value in data set [2] is 0%.
